Source: ChEMBL document CHEMBL5634157, “Design and synthesis of certain 7-Aryl-2-Methyl-3-Substituted Pyrazolo{1,5-a}Pyrimidines as multikinase inhibitors” (Eur J Med Chem, 2023)
Calls of active or inactive are those of the source. The rule behind the calls is not given here.

Tests used:
[1] = Inhibition of human recombinant FLT3 using myelin basic protein as substrate in presence of ATP by ADP-Glo luminescence kinase assay
Activin receptor type-1 = molecular target: T1, Activin receptor type-1 (Homo sapiens, UniProt Q04771); assay: Inhibition of human recombinant GST-tagged-ALK2 (147 to 509 residues) using Casein as substrate in presence of ATP by ADP-Glo luminescence assay
T1 sequence (Q04771 whole entry): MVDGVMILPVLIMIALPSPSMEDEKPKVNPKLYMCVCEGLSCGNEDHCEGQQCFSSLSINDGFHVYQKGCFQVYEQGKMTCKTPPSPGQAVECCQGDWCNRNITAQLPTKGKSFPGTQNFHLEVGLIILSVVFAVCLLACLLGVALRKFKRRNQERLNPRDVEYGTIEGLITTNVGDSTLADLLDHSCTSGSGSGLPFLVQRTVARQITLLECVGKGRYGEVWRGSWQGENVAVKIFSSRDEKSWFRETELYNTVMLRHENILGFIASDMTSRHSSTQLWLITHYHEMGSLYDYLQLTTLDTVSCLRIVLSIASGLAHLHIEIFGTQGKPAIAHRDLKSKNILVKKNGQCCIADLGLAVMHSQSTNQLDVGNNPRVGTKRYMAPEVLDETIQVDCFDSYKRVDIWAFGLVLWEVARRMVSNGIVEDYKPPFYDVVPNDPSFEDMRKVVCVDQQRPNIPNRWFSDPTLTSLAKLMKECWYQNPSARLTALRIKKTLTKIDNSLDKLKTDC

[2] = molecular target: Serine/threonine-protein kinase pim-1 (Homo sapiens, UniProt P11309); assay: Inhibition of human recombinant full-length PIM1 expressed in baculovirus infected Sf9 cells using S6K as substrate in presence of ATP by ADP-Glo luminescence kinase assay
Sequence of Serine/threonine-protein kinase pim-1 (P11309 whole entry): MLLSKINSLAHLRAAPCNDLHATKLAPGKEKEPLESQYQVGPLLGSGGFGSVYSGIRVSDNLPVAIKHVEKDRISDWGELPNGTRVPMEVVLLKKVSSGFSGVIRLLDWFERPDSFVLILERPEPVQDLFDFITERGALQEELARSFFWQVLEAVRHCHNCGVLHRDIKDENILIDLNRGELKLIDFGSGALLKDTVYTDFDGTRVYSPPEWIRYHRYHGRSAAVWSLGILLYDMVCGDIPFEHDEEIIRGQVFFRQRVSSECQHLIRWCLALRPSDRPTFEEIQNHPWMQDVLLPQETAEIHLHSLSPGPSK

[3] = molecular target: T2, Serine/threonine-protein kinase Chk1 (Homo sapiens, UniProt O14757); assay: Inhibition of human recombinant CHK1 using CHKtide as substrate in presence of ATP by ADP-Glo luminescence kinase assay
T2 sequence (O14757 whole entry): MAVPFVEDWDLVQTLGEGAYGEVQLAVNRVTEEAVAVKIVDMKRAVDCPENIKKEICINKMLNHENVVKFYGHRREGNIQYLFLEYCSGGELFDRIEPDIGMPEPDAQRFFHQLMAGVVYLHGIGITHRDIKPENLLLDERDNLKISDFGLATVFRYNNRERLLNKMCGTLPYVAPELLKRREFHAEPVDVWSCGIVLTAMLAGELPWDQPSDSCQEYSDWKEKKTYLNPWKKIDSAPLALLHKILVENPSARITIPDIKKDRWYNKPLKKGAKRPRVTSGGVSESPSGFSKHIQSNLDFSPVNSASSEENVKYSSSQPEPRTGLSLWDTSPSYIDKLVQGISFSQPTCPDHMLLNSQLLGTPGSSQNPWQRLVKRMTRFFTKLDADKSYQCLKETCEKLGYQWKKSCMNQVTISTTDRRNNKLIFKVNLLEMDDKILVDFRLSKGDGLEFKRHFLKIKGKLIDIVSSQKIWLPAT

[4] = Cytotoxicity against human FHCs assessed as inhibition of cell viability by MTT assay; type: toxicity, cell-based; conditions: FHC cells
[5] = Cytotoxicity against human MCF-10A cells assessed as inhibition of cell viability by MTT assay; type: toxicity, cell-based
EKVX = assay: Antiproliferative activity against human EKVX cells assessed as inhibition of cell viability by MTT assay
KM12 = assay: Antiproliferative activity against human KM12 cells assessed as inhibition of cell viability by MTT assay
[6] = molecular target: Casein kinase II subunit alpha (Homo sapiens, UniProt P68400); assay: Inhibition of human recombinant full-length C-terminal His tagged-CK2 alpha expressed in Escherichia coli using tetra-methylbenzidine as substrate in presence of ATP by ELISA analysis
Sequence of Casein kinase II subunit alpha (P68400 whole entry): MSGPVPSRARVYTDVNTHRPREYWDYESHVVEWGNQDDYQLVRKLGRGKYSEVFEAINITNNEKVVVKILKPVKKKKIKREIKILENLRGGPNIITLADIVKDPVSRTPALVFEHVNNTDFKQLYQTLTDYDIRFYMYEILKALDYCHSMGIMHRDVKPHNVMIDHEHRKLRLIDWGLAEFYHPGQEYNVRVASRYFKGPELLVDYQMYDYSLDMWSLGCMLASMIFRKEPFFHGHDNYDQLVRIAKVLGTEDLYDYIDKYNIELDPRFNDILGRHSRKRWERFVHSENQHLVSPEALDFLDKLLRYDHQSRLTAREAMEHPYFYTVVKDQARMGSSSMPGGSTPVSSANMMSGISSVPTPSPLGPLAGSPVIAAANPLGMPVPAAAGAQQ

[7] = molecular target: Cyclin-dependent kinase 2 (Homo sapiens, UniProt P24941); assay: Inhibition of human CDK2 by ELISA analysis
[8] = molecular target: Epidermal growth factor receptor (Homo sapiens, UniProt P00533); assay: Inhibition of human recombinant GST tagged-EGFR using Poly (Glu,Tyr) 4:1 as substrate in presence of ATP by ADP-Glo luminescence kinase assay
Sequence of Epidermal growth factor receptor (P00533 whole entry): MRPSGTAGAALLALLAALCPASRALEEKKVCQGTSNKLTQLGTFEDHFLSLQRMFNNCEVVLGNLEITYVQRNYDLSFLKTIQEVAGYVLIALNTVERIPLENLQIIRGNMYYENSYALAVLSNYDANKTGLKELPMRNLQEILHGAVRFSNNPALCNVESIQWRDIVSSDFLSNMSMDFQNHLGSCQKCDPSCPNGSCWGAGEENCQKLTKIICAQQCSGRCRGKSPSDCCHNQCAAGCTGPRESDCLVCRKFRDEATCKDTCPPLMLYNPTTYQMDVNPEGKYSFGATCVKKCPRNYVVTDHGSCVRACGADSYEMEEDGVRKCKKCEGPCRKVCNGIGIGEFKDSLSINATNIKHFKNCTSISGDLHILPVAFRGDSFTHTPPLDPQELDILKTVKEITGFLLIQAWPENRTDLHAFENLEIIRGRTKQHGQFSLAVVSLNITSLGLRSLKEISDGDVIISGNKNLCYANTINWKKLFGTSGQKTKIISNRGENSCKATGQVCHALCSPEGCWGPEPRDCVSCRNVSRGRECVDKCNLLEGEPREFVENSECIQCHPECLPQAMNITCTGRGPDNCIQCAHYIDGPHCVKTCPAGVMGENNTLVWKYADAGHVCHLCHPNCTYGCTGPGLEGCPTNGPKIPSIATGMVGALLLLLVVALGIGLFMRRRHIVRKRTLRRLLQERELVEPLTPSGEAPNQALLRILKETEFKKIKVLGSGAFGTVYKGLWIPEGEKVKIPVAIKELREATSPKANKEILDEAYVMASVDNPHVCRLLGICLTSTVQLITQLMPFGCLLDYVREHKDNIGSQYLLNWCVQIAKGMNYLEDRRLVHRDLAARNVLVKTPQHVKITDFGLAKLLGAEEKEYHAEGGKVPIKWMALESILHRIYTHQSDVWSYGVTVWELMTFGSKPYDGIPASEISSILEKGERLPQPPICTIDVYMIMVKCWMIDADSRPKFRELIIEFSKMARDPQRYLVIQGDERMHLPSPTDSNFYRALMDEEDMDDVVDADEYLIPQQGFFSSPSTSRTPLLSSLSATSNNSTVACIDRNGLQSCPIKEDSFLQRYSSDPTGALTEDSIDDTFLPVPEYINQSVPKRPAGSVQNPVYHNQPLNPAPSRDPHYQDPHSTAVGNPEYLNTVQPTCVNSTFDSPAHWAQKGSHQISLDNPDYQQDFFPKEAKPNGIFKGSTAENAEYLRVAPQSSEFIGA

[9] = molecular target: Proto-oncogene tyrosine-protein kinase ROS (Homo sapiens, UniProt P08922); assay: Inhibition of human recombinant GST tagged-ROS1 using IRF-1Rtide as substrate in presence of ATP by ADP-Glo luminescence kinase assay
[10] = molecular target: Proto-oncogene tyrosine-protein kinase receptor Ret (Homo sapiens, UniProt P07949); assay: Inhibition of human recombinant GST tagged-RET using IRF-1Rtide as substrate in presence of ATP by ADP-Glo luminescence kinase assay
Sequence of Proto-oncogene tyrosine-protein kinase receptor Ret (P07949 whole entry): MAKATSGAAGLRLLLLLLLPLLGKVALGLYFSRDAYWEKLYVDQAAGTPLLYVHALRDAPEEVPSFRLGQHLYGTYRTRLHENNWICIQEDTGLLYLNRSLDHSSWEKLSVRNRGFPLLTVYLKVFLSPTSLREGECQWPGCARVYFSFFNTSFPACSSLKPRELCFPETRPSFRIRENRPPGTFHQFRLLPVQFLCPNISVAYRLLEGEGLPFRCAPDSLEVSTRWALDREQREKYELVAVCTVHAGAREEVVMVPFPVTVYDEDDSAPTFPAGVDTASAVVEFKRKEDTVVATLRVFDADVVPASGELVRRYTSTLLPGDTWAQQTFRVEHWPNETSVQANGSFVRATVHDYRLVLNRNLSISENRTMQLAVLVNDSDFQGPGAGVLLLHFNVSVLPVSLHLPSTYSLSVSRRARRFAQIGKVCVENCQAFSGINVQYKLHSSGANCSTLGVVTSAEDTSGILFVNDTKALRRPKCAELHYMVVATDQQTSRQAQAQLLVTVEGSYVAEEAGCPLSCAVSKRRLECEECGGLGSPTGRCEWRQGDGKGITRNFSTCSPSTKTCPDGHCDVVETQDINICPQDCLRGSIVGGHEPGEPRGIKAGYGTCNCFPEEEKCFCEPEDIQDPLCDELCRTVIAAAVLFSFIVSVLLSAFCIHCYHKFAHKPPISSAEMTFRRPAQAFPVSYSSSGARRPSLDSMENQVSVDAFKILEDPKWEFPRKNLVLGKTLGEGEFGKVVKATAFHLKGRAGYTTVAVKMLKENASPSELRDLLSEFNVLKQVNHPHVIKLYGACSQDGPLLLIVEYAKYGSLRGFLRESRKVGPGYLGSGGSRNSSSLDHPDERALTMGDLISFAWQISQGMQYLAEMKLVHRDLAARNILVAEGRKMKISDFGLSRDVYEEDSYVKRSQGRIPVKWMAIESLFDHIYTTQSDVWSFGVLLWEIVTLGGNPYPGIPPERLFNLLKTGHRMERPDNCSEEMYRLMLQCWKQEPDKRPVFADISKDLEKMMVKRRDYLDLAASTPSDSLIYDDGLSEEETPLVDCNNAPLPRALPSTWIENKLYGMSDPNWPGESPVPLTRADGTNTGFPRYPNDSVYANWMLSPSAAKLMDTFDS

[11] = molecular target: Mast/stem cell growth factor receptor Kit (Homo sapiens, UniProt P10721); assay: Inhibition of human recombinant N-terminal GST tagged-c-KIT (544 to end residues) expressed in baculovirus infected Sf9 cells using Poly (Glu,Tyr) 4:1 as substrate in presence of ATP by ADP-Glo luminescence kinase assay
Sequence of Mast/stem cell growth factor receptor Kit (P10721 whole entry): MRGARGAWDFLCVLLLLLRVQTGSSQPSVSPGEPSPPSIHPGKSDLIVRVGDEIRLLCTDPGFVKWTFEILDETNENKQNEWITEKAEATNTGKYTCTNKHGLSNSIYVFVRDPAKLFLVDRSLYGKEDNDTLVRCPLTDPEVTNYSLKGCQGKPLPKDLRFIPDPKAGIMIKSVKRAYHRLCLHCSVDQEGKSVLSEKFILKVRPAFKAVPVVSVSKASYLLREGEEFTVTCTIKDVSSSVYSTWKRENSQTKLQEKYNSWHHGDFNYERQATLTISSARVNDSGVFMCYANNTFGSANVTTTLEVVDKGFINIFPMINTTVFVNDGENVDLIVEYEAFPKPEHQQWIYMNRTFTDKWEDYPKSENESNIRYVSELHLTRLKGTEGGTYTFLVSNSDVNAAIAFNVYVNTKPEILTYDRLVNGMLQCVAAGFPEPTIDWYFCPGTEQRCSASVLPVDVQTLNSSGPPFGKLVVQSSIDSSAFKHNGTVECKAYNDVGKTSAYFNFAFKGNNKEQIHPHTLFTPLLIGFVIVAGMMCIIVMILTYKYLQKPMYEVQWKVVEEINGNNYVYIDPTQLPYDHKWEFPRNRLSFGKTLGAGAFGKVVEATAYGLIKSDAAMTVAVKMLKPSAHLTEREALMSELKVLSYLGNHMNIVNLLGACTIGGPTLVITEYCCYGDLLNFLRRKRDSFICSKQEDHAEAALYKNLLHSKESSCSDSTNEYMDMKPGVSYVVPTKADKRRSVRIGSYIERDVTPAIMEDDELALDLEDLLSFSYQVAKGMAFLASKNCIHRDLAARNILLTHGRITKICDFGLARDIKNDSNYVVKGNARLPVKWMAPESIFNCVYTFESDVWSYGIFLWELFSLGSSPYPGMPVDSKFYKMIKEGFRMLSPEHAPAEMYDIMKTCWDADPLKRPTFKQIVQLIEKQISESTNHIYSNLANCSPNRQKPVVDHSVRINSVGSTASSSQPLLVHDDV

[12] = molecular target: T3, Activin receptor type-1 (Homo sapiens) (UniProt Q04771); assay: Inhibition of ALK2 in human EKVX cells by Western blotting analysis; type: cell-based
T3 sequence (whole entry): T1 sequence (Q04771 whole entry)

Row | SMILES | IC50 (Activin receptor type-1) | IC50 [3] | IC50 [6] | IC50 [7] | also measured
1 | CCc1nc(C(N)=O)c(Nc2ccc(N3CCC(N4CCN(C)CC4)CC3)c(OC)c2)nc1NC1CCOCC1 [GILTERITINIB] | – | – | – | – | IC50 [1]: 64 nM
2 | Cc1nn2c(-c3ccc(Br)cc3)ccnc2c1C#N | 105 nM | – | – | – | –
3 | O=c1c(O)c(-c2cc(O)c(O)c(O)c2)oc2cc(O)cc(O)c12 [MYRICETIN] | – | – | – | – | IC50 [2]: 4.06 µM
4 | Cn1cc(-c2cnn3c(N)cc([C@@H]4CCCNC4)nc23)cn1 | – | 34 nM | – | – | –
5 | COc1cccc2c1C(=O)c1c(O)c3c(c(O)c1C2=O)C[C@@](O)(C(=O)CO)C[C@@H]3O[C@H]1C[C@H](N)[C@H](O)[C@H](C)O1 [DOXORUBICIN] | – | – | – | – | IC50 [4]: 17.6 µM; IC50 [5]: 13.4 µM
6 | O=C(Nc1cnn2ccc(N3CCC[C@@H]3c3cc(F)ccc3F)nc12)N1CC[C@H](O)C1 [LAROTRECTINIB] | – | – | – | – | IC50 (EKVX): 7.33 µM; IC50 (KM12): 4.68 µM
7 | COc1ccc(-c2ccnc3c(-c4noc(C)n4)c(C)nn23)cc1 | 37 nM | 156 nM | 93 nM | 710 nM | IC50 [8]: 106 nM; IC50 [9]: 759 nM; IC50 [10]: 537 nM; IC50 [11]: 59 nM
8 | Cc1ccc(-c2ccnc3c(C#N)c(C)nn23)cc1 | 55 nM | – | – | – | –
9 | Cc1nc(-c2c(C)nn3c(-c4ccccc4)ccnc23)no1 | – | 119 nM | 289 nM | 1290 nM | –
10 | C[C@H]1Oc2cc(cnc2N)-c2c(nn(C)c2C#N)CN(C)C(=O)c2ccc(F)cc21 [LORLATINIB] | 29 nM | – | – | – | inhibition [12]: Active

The next lines start with results.

Row | IC50 (Activin receptor type-1) | IC50 [3] | IC50 [6] | IC50 [7] | SMILES | also measured
11 | 354 nM | – | – | – | Cc1nn2c(-c3ccc(Br)cc3)ccnc2c1C(N)=O | –
12 | 182 nM | – | – | – | Cc1nn2c(-c3ccc(Cl)cc3)ccnc2c1C(N)=O | –
13 | – | 85 nM | 72 nM | 1730 nM | Cc1nn2c(-c3ccccc3)ccnc2c1/C(N)=N/O | –
14 | 235 nM | – | – | – | Cc1nn2c(-c3ccc(Cl)cc3)ccnc2c1C#N | –
15 | – | 327 nM | 217 nM | 1070 nM | Cc1nn2c(-c3ccc(Cl)cc3)ccnc2c1/C(N)=N/O | –
16 | – | 74 nM | 122 nM | 590 nM | Cc1nn2c(-c3ccc(Br)cc3)ccnc2c1/C(N)=N/O | –
